Laboratory results as given in patent publication US20130337052A1, “System and Method of Reducing Impairment of Alertness, Concentration, Motivation, and Creativity Caused by Medication” (priority 2012, published 2013).

Key:
CB1 receptors = CB1 receptors (Homo sapiens, UniProt P21554); conditions: relative to THC; cited from earlier work
CB2 receptors = CB2 receptors (Homo sapiens, UniProt P34972); conditions: relative to THC; cited from earlier work
[1] = Side effects reported by patients using a medication containing THC; type: in vivo, human; conditions: e.g. Marinol
From the text: Patients using cannabinoid medications 10 prescribed for the treatment of symptoms such as pain and experiencing the undesirable side effects of the cannabinoid medications may provide relief through the administration of lithium compounds 30. […] Patients also reported a lack of motivation and a reduction in creativity while taking the medication. As a result, the patients have been unable or unwilling to perform ordinary tasks, such as, e.g., tasks associated with the patient's employment. However, upon treatment with lithium compounds 30, the alertness, concentration, motivation, and creativity of the patients were restored. As a result, the patients were able to continue to work productively while using the cannabinoid-based medication.

[2] = patients received up to 210 milligrams per day; cited from earlier work
[3] = lithium citrate syrup compared to lithium carbonate tablets; cited from earlier work
[4] = 150 milligrams per day; cited from earlier work

Chain of CB2 receptors (P34972 whole entry): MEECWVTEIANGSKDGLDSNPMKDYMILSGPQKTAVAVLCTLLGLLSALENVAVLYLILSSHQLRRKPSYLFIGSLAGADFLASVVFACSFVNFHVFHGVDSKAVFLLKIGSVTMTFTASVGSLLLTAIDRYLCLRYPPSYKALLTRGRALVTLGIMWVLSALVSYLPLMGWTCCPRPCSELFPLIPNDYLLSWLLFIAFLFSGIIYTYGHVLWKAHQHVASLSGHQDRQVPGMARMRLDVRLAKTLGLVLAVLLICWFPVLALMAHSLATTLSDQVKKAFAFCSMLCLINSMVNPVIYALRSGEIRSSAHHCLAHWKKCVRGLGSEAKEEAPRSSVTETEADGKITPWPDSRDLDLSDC
Chain of CB1 receptors (P21554 whole entry): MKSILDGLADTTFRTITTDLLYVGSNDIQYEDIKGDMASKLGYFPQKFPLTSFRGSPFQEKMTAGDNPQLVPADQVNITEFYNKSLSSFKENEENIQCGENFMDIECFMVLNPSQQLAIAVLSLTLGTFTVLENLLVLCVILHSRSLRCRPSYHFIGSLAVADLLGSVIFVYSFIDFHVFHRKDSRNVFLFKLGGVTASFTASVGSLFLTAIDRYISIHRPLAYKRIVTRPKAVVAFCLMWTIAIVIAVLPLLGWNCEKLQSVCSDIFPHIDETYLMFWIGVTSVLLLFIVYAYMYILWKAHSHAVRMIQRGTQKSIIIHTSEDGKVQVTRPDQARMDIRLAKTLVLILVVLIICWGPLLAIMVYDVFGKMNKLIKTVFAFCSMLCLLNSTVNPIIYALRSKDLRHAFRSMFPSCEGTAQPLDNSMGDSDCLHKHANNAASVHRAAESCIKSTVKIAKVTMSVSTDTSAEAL

CCCCCc1cc(O)c2c(c1)OC(C)(C)c1ccc(C)cc1-2 [CBN, cannabinol]
agonist effect on the CB1 receptor compared with THC (CB1 receptors): weaker agonist effect | agonist effect on the CB2 receptor compared with THC (CB2 receptors): weaker agonist effect

CCCCCc1cc(O)c2c(c1)OC(C)(C)[C@@H]1CCC(C)=C[C@@H]21 [THC, (−)-trans-Δ9-tetrahydrocannabinol]
side effects experienced by patients [1]: difficulty staying awake and maintaining concentration | toxic effects in clinical studies [2]: without toxic effects

O=C([O-])CC(O)(CC(=O)[O-])C(=O)[O-].[Li+].[Li+].[Li+] [lithium citrate]
rate at which lithium enters the body [3]: more rapidly

O=C([O-])c1cc(=O)[nH]c(=O)[nH]1.[Li+] [lithium orotate]
effect in the treatment of alcohol addiction [4]: beneficial
